# From US20160303056A1, “FASTING MIMICKING DIET (FMD) AND GLUCOSE LOWERING DRUGS PROTECT NORMAL CELLS AND GENERATE CANCER SENSITIZING CONDITIONS IN RESPONSE TO STANDARD AND HIGH GLUCOSE CONDITIONS INDUCED BY RAPAMYCIN AND DEXAMETHASONE” (UNIVERSITY OF SOUTHERN CALIFORNIA, priority 2015, published 2016)
# Tests used:
# [1] = Circulating glucose levels in mice given rapamycin or dexamethasone, with or without insulin, STS or FMD; type: in vivo, mouse (C57BL/6); details: rapamycin or dexamethasone ip daily for 14 days, compared with ad lib (FIG. 1B)
# [2] = tested on: C57BL/6 mice; details: mouse, in vivo
# [3] = Blood glucose levels in mice injected ip with metformin; type: in vivo, mouse; details: metformin 50 mg/kg ip, saline for control mice (FIG. 1E)
Compound,circulating glucose levels [1],sensitization of mice to chemotherapy (mortality) [2],circulating glucose levels [3]
CO[C@H]1C[C@@H]2CC[C@@H](C)[C@@](O)(O2)C(=O)C(=O)N2CCCC[C@H]2C(=O)O[C@H]([C@H](C)C[C@@H]2CC[C@@H](O)[C@H](OC)C2)CC(=O)[C@H](C)/C=C(\C)[C@@H](O)[C@@H](OC)C(=O)[C@H](C)C[C@H](C)/C=C/C=C/C=C/1C [rapamycin],caused an increase in glucose levels,increased mortality,–
"CN(C)C(=N)NC(=N)N [Metformin, N,N-Dimethylimidodicarbonimidic diamide]",–,–,reducing circulating glucose levels
C[C@@H]1C[C@H]2[C@@H]3CCC4=CC(=O)C=C[C@]4(C)[C@@]3(F)[C@@H](O)C[C@]2(C)[C@@]1(O)C(=O)CO [dexamethasone],caused an increase in glucose levels,increased mortality,–
